For the assay, the system named is paw swelling. The assay can be described thus: Reverse passive Arthus reaction, inhibition of paw swelling after oral dosing. The assay is classed as in vivo. The settings on record: rats; for inhibition in vivo at 10 mg/kg / inhibition in vivo at 100 mg/kg / inhibition in vivo at 30 mg/kg: Rattus norvegicus, po; for inhibition in vivo at 10 mg/kg: 10 mg/kg oral; for inhibition in vivo at 100 mg/kg: 100 mg/kg oral. The protocol: The reverse passive Arthus reaction is initiated by the interaction of antigen and antibody resulting in the formation of a precipitating immune complex, followed by fixation of complement, accumulation of leukocytes, edema and hemorrhage. The immunopathology of rheumatoid arthritis involves many of the parameters found in this reaction. Test groups (5 rats per group) are dosed orally with compounds one hour prior to the sub-plantar injection into the right hind paw of rabbit anti-ovalbumin antibody (50 μg/0.1 ml). Immediately afterwards, ovalbumin (Sigma, #5503) (5 mg/0.2 ml) is injected i.v. via the tail vein. The right hind paw volume is measured at hourly intervals, from one to four hours after the injection of the immune reactants. The change in paw volume for each animal is calculated by subtracting zero hour paw volume (before injection) from the paw volume at the time of measurement. The mean of these values is calculated for each group. Results are expressed in Table I below as percent inhibition of paw swelling compared to untreated controls.

Setting [1] is: 2 h, 2 hours, read-out: % INHIBITION (of paw swelling) HOUR 2.
Where [2] appears, read: 3 h, 3 hours, read-out: % INHIBITION (of paw swelling) HOUR 3.
Where [3] appears, read: 4 h, 4 hours, read-out: % INHIBITION (of paw swelling) HOUR 4.
[4] abbreviates: 2 h, 30 mg/kg oral, 2 hours, read-out: % INHIBITION (of paw swelling) HOUR 2.
[5] abbreviates: 3 h, 30 mg/kg oral, 3 hours, read-out: % INHIBITION (of paw swelling) HOUR 3.
[6] abbreviates: 4 h, 30 mg/kg oral, 4 hours, read-out: % INHIBITION (of paw swelling) HOUR 4.

Counter-ions that a name gives are not always drawn. Like-named read-outs stand apart in the source and are kept apart here.

Regarding `CN(C)Cc1ccccc1C(O)c1ccc(Cl)s1` (centres unmarked) [Compound 1, 5-chloro-2-[(2-dimethylaminomethylphenyl)hydroxymethyl]thiophene], the inhibition in vivo at 10 mg/kg stood at 54% under setting [1], 23.1% under setting [2] and 17.1% under setting [3]. Besides, the inhibition in vivo at 100 mg/kg runs as follows: under setting [1], 87.5%; under setting [2], 71.5%; under setting [3], 67.8%.

Regarding `CN(C)Cc1ccc(C(O)c2ccccc2CN(C)C)s1` (centres unmarked) [Compound 10, 5-N,N-dimethylaminomethyl-2-[2-(N,N-dimethylaminomethylphenyl)hydroxymethyl]thiophene], the inhibition in vivo at 30 mg/kg was 55.6% under setting [4], 21.6% under setting [5] and 19.4% under setting [6].

For `Cc1cc(Cl)sc1C(O)c1ccccc1CN(C)C` (centres unmarked) [Compound 13, 5-chloro-2-[(dimethylaminomethylphenyl)hydroxymethyl]-3-methylthiophene], the inhibition in vivo at 30 mg/kg under setting [4] was 66.8%, the inhibition in vivo at 30 mg/kg under setting [5] is 24.1% and the inhibition in vivo at 30 mg/kg under setting [6] stood at 7.3%. Moreover, the inhibition in vivo at 100 mg/kg under setting [1] was 51.7%, the inhibition in vivo at 100 mg/kg under setting [2] was found to be 28.6% and the inhibition in vivo at 100 mg/kg under setting [3] came to 3.3%.

For the molecule `CN(C)Cc1ccccc1C(O)c1ccc(Br)s1` (centres unmarked) [Compound 15], the inhibition in vivo at 30 mg/kg reads like this: under setting [4], 63.1%; under setting [5], 47.1%; under setting [6], 26.7%.

Take `CN(C)Cc1ccccc1C(O)c1ccc(Cl)s1.O=C(O)/C=C/C(=O)O` (centres unmarked) [Compound 16, 5-chloro-2-[-(2-dimethylaminomethylphenyl)-1-hydroxymethyl]thiophene monofumarate]: the “% INHIBITION (of paw swelling) HOUR 2” value (30 mg/kg oral, 2 hours) was found to be 17%. In addition, the “% INHIBITION (of paw swelling) HOUR 3” value (30 mg/kg oral, 3 hours) turned out to be 11%. The “% INHIBITION (of paw swelling) HOUR 4” value (30 mg/kg oral, 4 hours) was determined as 0%.

As to `CN(C)Cc1ccccc1C(O)c1sccc1Br` (centres unmarked) [Compound 17, 3-bromo-2-[(2-dimethylaminomethylphenyl)hydroxymethyl]thiophene monofumarate], the inhibition in vivo at 30 mg/kg was determined as 49% under setting [4], 5% under setting [5] and 0% under setting [6].

`CN(C)Cc1ccccc1C(O)c1cc(Br)cs1` (centres unmarked) [Compound 18, 4-bromo-2-[(2-dimethylaminomethylphenyl)hydroxymethyl]thiophene]: the inhibition in vivo at 30 mg/kg by setting is: under setting [4], 35%; under setting [5], 37%; under setting [6], 40%.

`CN(C)Cc1ccccc1C(O)c1ccc(C2(C)OCCO2)s1` (centres unmarked) [Compound 19, 2-[(2-dimethylaminomethylphenyl)hydroxymethyl]-5-(1,1-ethylenedioxyethyl) thiophene]: the inhibition in vivo at 30 mg/kg was 40% under setting [4], 37% under setting [5] and 11% under setting [6].

Turning to `CC(=O)c1ccc(C(O)c2ccccc2CN(C)C)s1` (centres unmarked) [Compound 20, 5-acetyl-2-[(2-dimethylaminomethylphenyl)hydroxymethyl]thiophene], the inhibition in vivo at 30 mg/kg was found to be 12% under setting [4], 15% under setting [5] and 2% under setting [6].

Consider `CN(C)Cc1ccccc1C(O)c1cc(Cl)sc1Cl` (centres unmarked) [Compound 25, 2,5-dichloro-3[(2-N,N-dimethylaminomethylphenyl)hydroxymethyl]thiophene hydrochloride], for which the inhibition in vivo at 30 mg/kg reads like this: under setting [4], 68%; under setting [5], 64%; under setting [6], 38%.

Turning to `CN(C)Cc1ccccc1C(O)c1cscc1Br` (centres unmarked) [Compound 26, 4-bromo-3-[(2-N,N-dimethylaminomethylphenyl)hydroxymethyl]thiophene hydrochloride], the inhibition in vivo at 30 mg/kg reads like this: under setting [4], 42%; under setting [5], 25%; under setting [6], 6%.

For `CN(C)Cc1ccccc1C(O)c1scc(Br)c1Br` (centres unmarked) [Compound 27, 3,4-dibromo-2-[(2-N,N-dimethylaminomethylphenyl)hydroxymethyl]thiophene hydrochloride], the inhibition in vivo at 30 mg/kg reads like this: under setting [4], 39%; under setting [5], 25%; under setting [6], 10%.

For `CN(C)Cc1ccccc1C(O)c1csc(I)c1` (centres unmarked) [Compound 28, 5-iodo-3-[(2-N,N-dimethylaminomethylphenyl)hydroxymethyl]thiophene hydrochloride], the inhibition in vivo at 30 mg/kg runs as follows: under setting [4], 21%; under setting [5], 0%; under setting [6], 13%.

As for `CN(C)Cc1ccccc1C(O)c1cc(I)sc1I` (centres unmarked) [Compound 29, 2,5-diiodo-3-[(2-N,N-dimethylaminomethylphenyl)hydroxymethyl]thiophene hydrochloride], the inhibition in vivo at 30 mg/kg amounted to 50% under setting [4], 29% under setting [5] and 0% under setting [6].

Consider `CN(C)Cc1ccccc1C(O)c1csc(Cl)c1Cl` (centres unmarked) [Compound 30, 4,5-dichloro-3-[(2-N,N-dimethylaminomethylphenyl)hydroxymethyl]thiophene hydrochloride], for which the inhibition in vivo at 30 mg/kg runs as follows: under setting [4], 47%; under setting [5], 36%.

For `CN(C)Cc1ccccc1C(O)c1c(Cl)sc(Cl)c1Cl` (centres unmarked) [Compound 31, 2,4,5-Trichloro-3-[(2-N,N-dimethylaminomethylphenyl)hydroxymethyl]thiophene hydrochloride], the inhibition in vivo at 30 mg/kg runs as follows: under setting [4], 44%; under setting [5], 32%; under setting [6], 0%.

For `CN(C)Cc1ccccc1C(O)c1sc(Cl)cc1Cl` (centres unmarked) [Compound 32, 3,5-dichloro-2-[(N,N-dimethylaminomethylphenyl)hydroxymethyl]thiophene hydrochloride], the inhibition in vivo at 30 mg/kg came to 62% under setting [4], 47% under setting [5] and 12% under setting [6].

As to `CN(C)Cc1ccccc1C(C)(O)c1ccc(Br)s1` (centres unmarked) [Compound 34, N,N-dimethyl-2-[1-(5-bromothien-2-yl)-1-hydroxyethyl]benzylamine], the inhibition in vivo at 30 mg/kg reads like this: under setting [4], 66%; under setting [5], 49%; under setting [6], 14%.

In the case of `CC(c1ccccc1C(O)c1csc(Br)c1)N(C)C` (centres unmarked) [Compound 35, 5-bromo-3-[2-(1-N,N-dimethylaminoethylphenyl)hydroxymethyl]thiophene], the inhibition in vivo at 30 mg/kg is, setting by setting: under setting [4], 58%; under setting [5], 48%; under setting [6], 9%.

`CC(c1ccccc1C(O)c1ccc(Cl)s1)N(C)C` (centres unmarked) [Compound 36, 5-chloro-2-[2-(1-N,N-dimethylaminoethylphenyl)hydroxymethyl]thiophene hydrochloride]: the inhibition in vivo at 30 mg/kg came out at 52% under setting [4], 15% under setting [5] and 3% under setting [6].

For the molecule `CN(C)Cc1ccccc1C(=O)c1ccsc1` [Compound 37, 3-[2-(2-N,N-dimethylaminomethylphenyl)carbonyl]thiophene], the inhibition in vivo at 30 mg/kg stood at 0% under setting [4], 0% under setting [5] and 0% under setting [6].
